Measured values as given in patent US8309558B2, “Compounds for the treatment of hepatitis C” (Bristol-Myers Squibb Company, priority 2008, dated 2012).
pEC50, pIC50: −log10 of the molar value.

Experiments:
[1] = target: T1, HCV NS5B RdRp genotype 1b (Hepatitis C virus genotype 1b, UniProt Q9WMX2); experiment: Standard HCV NS5B RdRp enzyme assay; type: biochemical; details: Table 1a; HCV NS5B RdRp genotype 1b; read-out: IC50
T1 construct: The protein was expressed with an 18 amino acid C-terminal truncation to enhance the solubility; made in house; host or cells: E. coli BL21(DE3), pET21a vector
Method in brief: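 C-terminally truncated (18 aa) genotype 1b NS5B from E. coli, 28 nM, with 6 nM polyA template, 180 nM biotinylated oligo-dT12 primer and 3H-UTP (0.29 μM total UTP). Hepes pH 7.5 buffer with 2% DMSO; 60 min at 30° C. EDTA stop, SPA read-out; IC50 from seven concentrations by four-parameter fit.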

[2] = system: HCV replicon cells; experiment: HCV replicon FRET / luciferase assay (96-well plates); type: cell-based; details: Hepatitis C virus, Table 1a; HCV replicon; read-out: EC50
Method in brief: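 Replicon cells + titrated cpds, 37 °C CO2. Alamar blue for cytotoxicity, PBS rinse, then lysis reagent w/ 20 μM FRET peptide (EDANS/DABCYL), 150 mM NaCl; kinetic read ex340/em490, 20 cycles. Alt: Dual-Glo luciferase. EC50 = 50% drop in FRET/luciferase signal after background subtraction.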

T1 sequence (Q9WMX2 2420-2992): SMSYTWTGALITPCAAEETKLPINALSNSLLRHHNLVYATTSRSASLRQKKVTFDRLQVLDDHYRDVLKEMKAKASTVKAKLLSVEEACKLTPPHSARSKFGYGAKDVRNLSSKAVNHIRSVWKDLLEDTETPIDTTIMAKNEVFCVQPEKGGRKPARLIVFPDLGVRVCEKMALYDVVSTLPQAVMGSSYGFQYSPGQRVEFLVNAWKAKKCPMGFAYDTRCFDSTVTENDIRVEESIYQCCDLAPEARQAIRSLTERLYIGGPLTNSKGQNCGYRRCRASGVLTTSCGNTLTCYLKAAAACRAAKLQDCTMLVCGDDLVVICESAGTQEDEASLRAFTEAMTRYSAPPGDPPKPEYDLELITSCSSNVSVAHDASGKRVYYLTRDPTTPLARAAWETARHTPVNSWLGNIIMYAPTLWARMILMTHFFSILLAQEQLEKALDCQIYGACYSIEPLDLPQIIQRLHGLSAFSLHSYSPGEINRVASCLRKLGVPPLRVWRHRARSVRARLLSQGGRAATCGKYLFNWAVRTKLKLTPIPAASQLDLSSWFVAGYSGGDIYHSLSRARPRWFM

## CNC(=O)c1c(-c2ccc(F)cc2)oc2ccc(-c3cccc(C(=O)N(CCOC)CCOC)c3)cc12
[1]
  pIC50: 5.00 to 6.00
[2]
  pEC50: 5.00 to 6.00

## CCN1CCN(C(=O)c2cccc(-c3ccc4oc(-c5ccc(F)cc5)c(C(=O)NC)c4c3)c2)CC1
[1]
  pIC50: 5.00 to 6.00
[2]
  pEC50: 5.00 to 6.00

## CNC(=O)c1c(-c2ccc(F)cc2)oc2ccc(-c3cccc(C(=O)NCCNC(C)=O)c3)cc12
[1]
  pIC50: 5.00 to 6.00
[2]
  pEC50: 5.00 to 6.00

## CNC(=O)c1c(-c2ccc(F)cc2)oc2ccc(-c3cccc(C(=O)N(C)CCN(C)C)c3)cc12
[1]
  pIC50: < 5.00
[2]
  pEC50: 5.00 to 6.00

## CNC(=O)c1c(-c2ccc(F)cc2)oc2ccc(-c3cccc(C(=O)Nc4cccc(OC)c4)c3)cc12
[1]
  pIC50: 5.00 to 6.00
[2]
  pEC50: 5.00 to 6.00

## CCOC(=O)C1CCCN(C(=O)c2cccc(-c3ccc4oc(-c5ccc(F)cc5)c(C(=O)NC)c4c3)c2)C1 (stereo not drawn)
[1]
  pIC50: 5.00 to 6.00
[2]
  pEC50: 5.00 to 6.00

## CNC(=O)c1c(-c2ccc(F)cc2)oc2ccc(-c3cccc(C(=O)N4CC(C)OC(C)C4)c3)cc12 (stereo not drawn)
[1]
  pIC50: 5.00 to 6.00
[2]
  pEC50: 5.00 to 6.00

## CNC(=O)c1c(-c2ccc(F)cc2)oc2ccc(-c3cccc(C(=O)N4CCC[C@H]4CO)c3)cc12
[1]
  pIC50: 6.00 to 6.60
[2]
  pEC50: 5.00 to 6.00

## CNC(=O)c1c(-c2ccc(F)cc2)oc2ccc(-c3cccc(C(=O)N(C)CCO)c3)cc12
[1]
  pIC50: 5.00 to 6.00
[2]
  pEC50: 5.00 to 6.00

## CNC(=O)c1c(-c2ccc(F)cc2)oc2ccc(-c3cccc(C(=O)N4CCCC(C)C4)c3)cc12 (stereo not drawn)
[1]
  pIC50: 5.00 to 6.00
[2]
  pEC50: 5.00 to 6.00

## CNC(=O)c1c(-c2ccc(F)cc2)oc2ccc(-c3cccc(C(=O)Nc4ccccc4Cl)c3)cc12
[1]
  pIC50: 5.00 to 6.00
[2]
  pEC50: 5.00 to 6.00

## CNC(=O)c1c(-c2ccc(F)cc2)oc2ccc(-c3cccc(C(=O)Nc4cccc(O)c4)c3)cc12
[1]
  pIC50: 5.00 to 6.00
[2]
  pEC50: 5.00 to 6.00

## CNC(=O)c1c(-c2ccc(F)cc2)oc2ccc(-c3cccc(C(=O)N4CCCC(CO)C4)c3)cc12 (stereo not drawn)
[1]
  pIC50: 5.00 to 6.00
[2]
  pEC50: 5.00 to 6.00

## CNC(=O)c1c(-c2ccc(F)cc2)oc2ccc(-c3ccc(C(=O)N4CC[C@H](NC(C)=O)C4)cc3)cc12
[1]
  pIC50: 5.00 to 6.00
[2]
  pEC50: 5.00 to 6.00

## CCN(Cc1ccncc1)C(=O)c1ccc(-c2ccc3oc(-c4ccc(F)cc4)c(C(=O)NC)c3c2)cc1
[1]
  pIC50: < 5.00
[2]
  pEC50: 5.00 to 6.00

## CNC(=O)c1c(-c2ccc(F)cc2)oc2ccc(-c3ccc(C(=O)NCC(=O)OC)cc3)cc12
[1]
  pIC50: < 5.00
[2]
  pEC50: 5.00 to 6.00

## CNC(=O)c1c(-c2ccc(F)cc2)oc2ccc(-c3ccc(C(=O)N(C)C4CCN(C)C4)cc3)cc12 (stereo not drawn)
[1]
  pIC50: < 5.00
[2]
  pEC50: 5.00 to 6.00

## CNC(=O)c1c(-c2ccc(F)cc2)oc2ccc(-c3ccc(C(=O)NCCc4ccc(F)cc4)cc3)cc12
[1]
  pIC50: < 5.00
[2]
  pEC50: 5.00 to 6.00

## CNC(=O)c1c(-c2ccc(F)cc2)oc2ccc(-c3ccc(C(=O)NCCO)cc3)cc12
[1]
  pIC50: < 5.00
[2]
  pEC50: 5.00 to 6.00

## CNC(=O)c1c(-c2ccc(F)cc2)oc2ccc(-c3cccc(C(=O)Nc4ccon4)c3)cc12
[1]
  pIC50: 6.00 to 6.60
[2]
  pEC50: 5.00 to 6.00

## CNC(=O)c1c(-c2ccc(F)cc2)oc2ccc(-c3cccc(C(=O)Nc4cc(C)no4)c3)cc12
[1]
  pIC50: 5.00 to 6.00
[2]
  pEC50: 5.00 to 6.00

## CNC(=O)c1c(-c2ccc(F)cc2)oc2ccc(-c3ccc(Cl)c(C(=O)NCC(C)C)c3)cc12
[1]
  pIC50: 5.00 to 6.00
[2]
  pEC50: 5.00 to 6.00

## CNC(=O)c1c(-c2ccc(F)cc2)oc2ccc(-c3cccc(C(=O)N[C@@H](C)C(=O)OC)c3)cc12
[1]
  pIC50: > 6.60
[2]
  pEC50: 5.00 to 6.00

## CNC(=O)c1c(-c2ccc(F)cc2)oc2ccc(-c3cccc(C(=O)N[C@H](CO)Cc4c[nH]cn4)c3)cc12
[1]
  pIC50: 5.00 to 6.00
[2]
  pEC50: 5.00 to 6.00

## CCOC(=O)[C@H](C)NC(=O)c1cccc(-c2ccc3oc(-c4ccc(F)cc4)c(C(=O)NC)c3c2)c1
[1]
  pIC50: > 6.60
[2]
  pEC50: 5.00 to 6.00

## CNC(=O)c1c(-c2ccc(F)cc2)oc2ccc(-c3cccc(C(=O)N[C@@H](CO)c4ccccc4)c3)cc12
[1]
  pIC50: 6.00 to 6.60
[2]
  pEC50: 5.00 to 6.00

## CNC(=O)c1c(-c2ccc(F)cc2)oc2ccc(-c3cccc(C(=O)NC(CO)C(=O)OC)c3)cc12 (stereo not drawn)
[1]
  pIC50: 6.00 to 6.60
[2]
  pEC50: 5.00 to 6.00

## CNC(=O)c1c(-c2ccc(F)cc2)oc2ccc(-c3cccc(C(=O)Nc4ccc(O)nc4)c3)cc12
[1]
  pIC50: 5.00 to 6.00
[2]
  pEC50: 5.00 to 6.00

## CNC(=O)c1c(-c2ccc(F)cc2)oc2ccc(-c3cccc(C(=O)N[C@H](C(N)=O)C(C)C)c3)cc12
[1]
  pIC50: 6.00 to 6.60
[2]
  pEC50: 5.00 to 6.00

## CNC(=O)c1c(-c2ccc(F)cc2)oc2ccc(-c3cccc(C(=O)N[C@H](CO)C(=O)OC)c3)cc12
[1]
  pIC50: 6.00 to 6.60
[2]
  pEC50: 5.00 to 6.00

## CCOC(=O)C(NC(=O)c1cccc(-c2ccc3oc(-c4ccc(F)cc4)c(C(=O)NC)c3c2)c1)C(C)C (stereo not drawn)
[1]
  pIC50: 6.00 to 6.60
[2]
  pEC50: 5.00 to 6.00

## CNC(=O)c1c(-c2ccc(F)cc2)oc2ccc(-c3cccc(C(=O)N[C@@H](C)C(=O)NC)c3)cc12
[1]
  pIC50: 6.00 to 6.60
[2]
  pEC50: 5.00 to 6.00

## CNC(=O)c1c(-c2ccc(F)cc2)oc2ccc(-c3cccc(C(=O)N[C@@H](CO)CC(C)C)c3)cc12
[1]
  pIC50: 5.00 to 6.00
[2]
  pEC50: 5.00 to 6.00
